US20230117470A1, “SUBSTITUTED PYRAZOLE COMPOUNDS AS TOLL RECEPTOR INHIBITORS” (BRISTOL-MYERS SQUIBB COMPANY, priority 2019, published 2023)
pIC50: −log10 of the molar value.

What was measured:
Assay type in all cases: cell-based
[1] = molecular target: T1, human TLR8 (Homo sapiens, UniProt Q9NR97); experiment: TLR8 inhibition reporter assay (HEK-Blue cells, SEAP reporter, R848 stimulation); settings: HEK-Blue cells overexpressing human TLR8, SEAP reporter, R848 15.9 μM
T1 construct: host or cells: HEK-Blue cells
T1 sequence (Q9NR97 27-1041): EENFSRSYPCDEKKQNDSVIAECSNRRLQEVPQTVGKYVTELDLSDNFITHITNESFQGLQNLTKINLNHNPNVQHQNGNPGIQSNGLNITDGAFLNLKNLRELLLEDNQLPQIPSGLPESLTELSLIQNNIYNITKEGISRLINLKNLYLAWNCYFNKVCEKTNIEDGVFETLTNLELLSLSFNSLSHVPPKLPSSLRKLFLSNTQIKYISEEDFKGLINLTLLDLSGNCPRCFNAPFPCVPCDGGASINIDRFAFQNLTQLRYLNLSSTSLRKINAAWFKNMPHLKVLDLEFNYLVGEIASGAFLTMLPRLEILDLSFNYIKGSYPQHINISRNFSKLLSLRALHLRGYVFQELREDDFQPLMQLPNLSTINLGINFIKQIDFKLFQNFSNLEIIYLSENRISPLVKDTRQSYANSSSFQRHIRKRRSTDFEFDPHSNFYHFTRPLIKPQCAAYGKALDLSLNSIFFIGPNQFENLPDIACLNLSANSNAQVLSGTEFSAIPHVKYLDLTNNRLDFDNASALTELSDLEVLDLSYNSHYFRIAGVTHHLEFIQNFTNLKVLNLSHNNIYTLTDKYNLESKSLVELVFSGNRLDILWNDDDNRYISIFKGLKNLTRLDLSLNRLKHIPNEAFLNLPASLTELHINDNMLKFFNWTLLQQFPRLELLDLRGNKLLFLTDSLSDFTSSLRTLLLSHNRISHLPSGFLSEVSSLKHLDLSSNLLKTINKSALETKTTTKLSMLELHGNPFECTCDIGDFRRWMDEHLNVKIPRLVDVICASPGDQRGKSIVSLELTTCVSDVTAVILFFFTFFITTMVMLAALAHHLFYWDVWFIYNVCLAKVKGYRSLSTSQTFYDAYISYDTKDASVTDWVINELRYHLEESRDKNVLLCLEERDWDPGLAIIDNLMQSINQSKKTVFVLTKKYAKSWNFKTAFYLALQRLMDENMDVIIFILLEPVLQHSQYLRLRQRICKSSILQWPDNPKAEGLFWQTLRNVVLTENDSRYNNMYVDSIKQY
Summary of the method: (§1)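 Percent inhibition of agonist-induced SEAP, set between agonist+DMSO wells and known-inhibitor wells, after 22 h at 37° C. Compounds (0.05 nM-50 μM final) were added 30 min at room temperature before ligand: gardiquimod 7.5 μM for TLR7, R848 15.9 μM for TLR8, ODN2006 5 nM for TLR9. Human receptors overexpressed in HEK-Blue reporter cells.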

[2] = molecular target: T2, human TLR7 (Homo sapiens, UniProt Q9NYK1); experiment: TLR7 inhibition reporter assay (HEK-Blue cells, SEAP reporter, gardiquimod stimulation); settings: HEK-Blue cells overexpressing human TLR7, SEAP reporter, gardiquimod 7.5 μM
T2 construct: host or cells: HEK-Blue cells
T2 sequence (Q9NYK1 27-1049): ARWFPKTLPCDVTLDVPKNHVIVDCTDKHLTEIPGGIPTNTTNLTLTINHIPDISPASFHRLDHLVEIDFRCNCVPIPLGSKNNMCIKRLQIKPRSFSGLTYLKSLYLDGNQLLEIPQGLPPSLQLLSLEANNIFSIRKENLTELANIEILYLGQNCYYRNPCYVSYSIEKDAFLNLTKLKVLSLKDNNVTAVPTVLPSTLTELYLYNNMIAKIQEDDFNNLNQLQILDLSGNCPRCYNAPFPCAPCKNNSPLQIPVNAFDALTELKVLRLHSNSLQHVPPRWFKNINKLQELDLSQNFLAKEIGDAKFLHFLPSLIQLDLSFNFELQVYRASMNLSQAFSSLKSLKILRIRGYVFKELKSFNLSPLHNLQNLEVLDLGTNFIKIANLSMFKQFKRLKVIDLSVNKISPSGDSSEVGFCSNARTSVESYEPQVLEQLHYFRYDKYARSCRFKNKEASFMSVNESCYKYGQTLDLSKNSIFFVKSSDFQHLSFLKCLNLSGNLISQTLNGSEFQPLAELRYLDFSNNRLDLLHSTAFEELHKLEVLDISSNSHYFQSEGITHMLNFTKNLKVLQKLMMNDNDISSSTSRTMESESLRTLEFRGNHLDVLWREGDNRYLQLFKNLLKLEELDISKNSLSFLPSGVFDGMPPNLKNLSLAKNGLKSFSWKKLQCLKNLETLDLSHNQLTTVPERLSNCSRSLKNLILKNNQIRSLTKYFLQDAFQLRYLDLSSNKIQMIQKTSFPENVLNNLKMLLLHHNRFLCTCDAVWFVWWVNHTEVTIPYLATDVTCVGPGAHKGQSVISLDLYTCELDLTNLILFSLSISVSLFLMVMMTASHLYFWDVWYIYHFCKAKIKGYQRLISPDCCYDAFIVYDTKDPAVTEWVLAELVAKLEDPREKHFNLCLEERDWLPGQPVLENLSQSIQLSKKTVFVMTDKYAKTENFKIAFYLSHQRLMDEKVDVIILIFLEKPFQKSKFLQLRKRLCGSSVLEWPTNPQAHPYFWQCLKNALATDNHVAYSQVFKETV
Summary of the method: as §1

[3] = molecular target: T3, human TLR9 (Homo sapiens, UniProt Q9NR96); experiment: TLR9 inhibition reporter assay (HEK-Blue cells, SEAP reporter, ODN2006 stimulation); settings: HEK-Blue cells overexpressing human TLR9, SEAP reporter, ODN2006 5 nM
T3 construct: host or cells: HEK-Blue cells
T3 sequence (Q9NR96 26-1032): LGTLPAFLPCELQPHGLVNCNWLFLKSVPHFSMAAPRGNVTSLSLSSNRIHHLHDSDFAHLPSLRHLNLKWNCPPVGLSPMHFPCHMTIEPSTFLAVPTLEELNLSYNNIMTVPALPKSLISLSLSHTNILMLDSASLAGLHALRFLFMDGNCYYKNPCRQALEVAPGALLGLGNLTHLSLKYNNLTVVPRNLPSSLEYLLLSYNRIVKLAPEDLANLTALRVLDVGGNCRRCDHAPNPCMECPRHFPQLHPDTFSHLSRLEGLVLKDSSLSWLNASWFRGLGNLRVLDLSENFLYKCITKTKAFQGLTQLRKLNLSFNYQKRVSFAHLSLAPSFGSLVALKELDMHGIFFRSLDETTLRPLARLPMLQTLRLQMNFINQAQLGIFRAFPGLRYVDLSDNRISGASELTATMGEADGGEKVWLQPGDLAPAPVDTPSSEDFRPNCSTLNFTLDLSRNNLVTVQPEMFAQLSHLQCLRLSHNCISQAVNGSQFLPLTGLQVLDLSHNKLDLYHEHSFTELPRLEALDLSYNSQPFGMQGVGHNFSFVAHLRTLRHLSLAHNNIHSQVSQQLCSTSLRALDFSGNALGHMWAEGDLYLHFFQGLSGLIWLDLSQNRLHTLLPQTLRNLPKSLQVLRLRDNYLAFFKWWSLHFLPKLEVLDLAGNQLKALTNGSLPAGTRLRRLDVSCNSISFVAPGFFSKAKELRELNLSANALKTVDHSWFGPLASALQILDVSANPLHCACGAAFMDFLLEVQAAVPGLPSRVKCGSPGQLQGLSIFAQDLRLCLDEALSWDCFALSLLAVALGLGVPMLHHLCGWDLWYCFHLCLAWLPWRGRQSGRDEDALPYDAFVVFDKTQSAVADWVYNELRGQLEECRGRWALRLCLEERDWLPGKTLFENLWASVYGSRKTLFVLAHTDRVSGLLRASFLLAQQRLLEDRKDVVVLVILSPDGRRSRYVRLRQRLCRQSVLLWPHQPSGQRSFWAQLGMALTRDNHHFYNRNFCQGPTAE
Summary of the method: as §1

Cc1cc(-c2[nH]nc(C(=O)NC3CCN(C(C)C)CC3)c2C(C)C)cn2ccnc12 [Example 37]
pIC50 [1]: 7.57
pIC50 [2]: 7.92
pIC50 [3]: 4.55

Cc1cc(-c2[nH]nc(C(=O)NC3CCN(C(C)CS(C)(=O)=O)CC3)c2C(C)C)cn2ncnc12 (stereo not drawn) [Example 174, 4-isopropyl-5-(8-methyl-[1,2,4]triazolo[1,5-a]pyridin-6-yl)-N-(1-(1-(methylsulfonyl)propan-2-yl)piperidin-4-yl)-1H-pyrazole-3-carboxamide]
pIC50 [1]: 8.50
pIC50 [2]: 8.74
pIC50 [3]: 4.79

Cc1cc(-c2[nH]nc(C3CCN(C)CC3)c2C(C)C)cn2ncnc12 [Example 206, 6-(4-isopropyl-3-(1-methylpiperidin-4-yl)-1H-pyrazol-5-yl)-8-methyl-[1,2,4]triazolo[1,5-a]pyridine]
pIC50 [1]: 9.19
pIC50 [2]: 8.64
pIC50 [3]: 4.90

Cc1cc(-c2[nH]nc(-c3ccncc3)c2C(C)C)cn2ncnc12 [Example 223]
pIC50 [1]: 7.99
pIC50 [2]: 8.06
pIC50 [3]: 4.85

Cc1cc(-c2[nH]nc(-c3ccc(N4CCNCC4)cc3)c2C(C)C)cn2ncnc12 [Example 406]
pIC50 [1]: 6.85
pIC50 [2]: 8.56
pIC50 [3]: < 4.30

Cc1cc(-c2[nH]nc(-c3ccc(C4CCN(C)CC4)nc3)c2C(C)C)cn2ncnc12 [Example 359]
pIC50 [1]: < 5.51
pIC50 [2]: 5.95
pIC50 [3]: < 4.30

CCN1CCC(c2ccc(-c3n[nH]c(-c4cc(C)c5ncnn5c4)c3C(C)C)cn2)CC1 [Example 360]
pIC50 [1]: 5.88
pIC50 [2]: 5.91
pIC50 [3]: < 4.30

CC(C)c1c(C(=O)NC2CCN(C(C)C)CC2)n[nH]c1-c1cn(C)c2ncccc12 [Example 42]
pIC50 [1]: 8.17
pIC50 [2]: 8.52
pIC50 [3]: 4.72

COc1c(C)c(-c2[nH]nc(-c3ccc(C4CCN(CC5CCOCC5)CC4)cn3)c2C(C)C)cn2ncnc12 [Example 388]
pIC50 [1]: 7.43
pIC50 [2]: 7.65
pIC50 [3]: 4.79

Cc1cc(-c2[nH]nc(C(=O)NC3CCN(C4CCOCC4)CC3)c2C(C)C)cn2ncnc12 [Example 153]
pIC50 [1]: 8.18
pIC50 [2]: 7.56
pIC50 [3]: 4.65

Cc1cc(-c2[nH]nc(-c3cnc(N4CCNCC4)nc3)c2C(C)C)cn2ncnc12 [Example 407]
pIC50 [1]: 6.55
pIC50 [2]: 7.54
pIC50 [3]: < 4.30

Cc1cc(-c2[nH]nc(C(=O)NC3CCN(CCCC(F)(F)F)CC3)c2C(C)C)cn2ncnc12 [Example 71]
pIC50 [1]: 7.72
pIC50 [2]: 8.16
pIC50 [3]: 5.24

Cc1cc(-c2[nH]nc(C(=O)N[C@H]3CC[C@@H](NCC4CCOC4)CC3)c2C(C)C)cn2ncnc12 (stereo partly drawn) [Example 87]
pIC50 [1]: 7.93
pIC50 [2]: 8.76
pIC50 [3]: 5.11

CCN1CCC(c2ccc(-c3n[nH]c(-c4cc(OC)c5ncnn5c4)c3C(C)C)cc2)CC1 [Example 315]
pIC50 [1]: 7.69
pIC50 [2]: 8.28
pIC50 [3]: < 4.30

Cc1cc(-c2[nH]nc(C3CCC(N(C)C(=O)C4CN(C)C4)CC3)c2C(C)C)cn2ncnc12 (stereo not drawn) [Example 300, N-(4-(4-isopropyl-5-(8-methyl-[1,2,4]triazolo[1,5-a]pyridin-6-yl)-1H-pyrazol-3-yl)cyclohexyl)-N,1-dimethylazetidine-3-carboxamide]
pIC50 [1]: 8.49
pIC50 [2]: 7.97
pIC50 [3]: 5.00

Cc1cc(-c2[nH]nc(-c3ccc(C4CN(C)C4)cc3)c2C(C)C)cn2ncnc12 [Example 324, 6-(4-isopropyl-3-(4-(1-methylazetidin-3-yl)phenyl)-1H-pyrazol-5-yl)-8-methyl-[1,2,4]triazolo[1,5-a]pyridine]
pIC50 [1]: 8.65
pIC50 [2]: 8.16
pIC50 [3]: 5.20

CCCN1CCC(c2cnc(-c3n[nH]c(-c4cc(OC)c5ncnn5c4)c3C(C)C)cn2)CC1 [Example 383]
pIC50 [1]: 8.45
pIC50 [2]: 7.76
pIC50 [3]: 4.33

CCN1CCC[C@H](NC(=O)c2n[nH]c(-c3cc(C)c4ncnn4c3)c2C(C)C)C1 [Example 164]
pIC50 [1]: 8.35
pIC50 [2]: 8.88
pIC50 [3]: 4.81

Cc1cc(-c2[nH]nc(C3CCC(N4CCC(N(C)C)CC4)CC3)c2C(C)C)cn2ncnc12 (single isomer, unassigned) [Example 293]
pIC50 [1]: 9.42
pIC50 [2]: 8.53
pIC50 [3]: 5.18

Cc1cc(-c2[nH]nc(-c3ccc4c(c3)CCNC4=O)c2C(C)C)cn2ncnc12 [Example 215]
pIC50 [1]: 8.22
pIC50 [2]: 8.64
pIC50 [3]: 4.83

Cc1cc(-c2[nH]nc(-c3cncc(N)c3)c2C(C)C)cn2ncnc12 [Example 225]
pIC50 [1]: 8.40
pIC50 [2]: 8.59
pIC50 [3]: 5.26

Cc1cc(-c2[nH]nc(-c3ccc(C4CN(C(=O)CN(C)C)C4)cc3)c2C(C)C)cn2ncnc12 [Example 334, 2-(dimethylamino)-1-(3-(4-(4-isopropyl-5-(8-methyl-[1,2,4]triazolo[1,5-a]pyridin-6-yl)-1H-pyrazol-3-yl)phenyl)azetidin-1-yl)ethan-1-one]
pIC50 [1]: 8.50
pIC50 [2]: 7.87
pIC50 [3]: 5.32
